Reference: patent US20140336196A1, “PHOSPHORIC ACID SALTS OF SITAGLIPTIN” (Merck Sharp & Dohme Corp., priority 2011, published 2014)
Where a name gives a salt, the structure may show the parent alone.

Experiment: Physical stability of the crystalline salt at elevated temperature and humidity
Assay type: physicochemical

In the case of `N[C@@H](CC(=O)N1CCn2c(nnc2C(F)(F)F)C1)Cc1cc(F)c(F)cc1F` [Bis-[(2R)-4-oxo-4-[3-(trifluoromethyl)-5,6-dihydro[1,2,4]triazolo[4,3-a]pyrazin-7(8H)-yl]-1-(2,4,5-trifluorophenyl)butan-2-amine]phosphoric acid trihydrate salt], the “stability at elevated temperature and humidity” value (elevated temperature and humidity (general statement)) is reported as “unexpectedly stable” and the physical stability (solid crystalline salt, 40° C. at 75% relative humidity for 2 weeks) is reported as “physically stable”.
